Source: patent US20070128669A1, “Serum-free expansion of cells in culture” (Institute for Chemical Genomics, priority 2005, published 2007)

Key:
[1] = tested on: Nanog gene expression in ESCs; test: Real-time RT-PCR for Nanog in feeder-free ESCs; assay type: cell-based, mouse; conditions: feeder-free ESCs; IQ-1 4 μg/ml or LIF 1000 U/ml, 21 hrs
Protocol: FIG. 2. […] Real-time RT-PCR for Nanog was performed. The control expression level of Nanog at day 0 was set at 1. FIG. 2B, removal of IQ-1 decreases Nanog gene expression in ESCs. IQ-1 was removed from ESCs which had been cultured under feeder-free system and in the presence of IQ-1 (4 μg/ml), for three days. At the end of this period, mRNA was isolated and real-time RT-PCR was performed to assay for Nanog gene expression. FIG. 2C, effects of IQ-1 were not mediated through Stat3 signaling pathway as judged by luciferase reporter assay. Feeder-free ESCs, transfected with the pSTAT3-TA-Luc reporter, were exposed to IQ-1 at the indicated doses, or LIF. All error bars represent mean±SD.
Real-time RT-PCR. Total RNA was isolated and reverse-transcribed using SuperScript III (Invitrogen). Real-time RT-PCR (Sybr Green; BioRad) was performed using with the gene-specific primers: […]

Stat3 signaling pathway = test: pSTAT3-TA-Luc luciferase reporter assay in ESCs; assay type: cell-based, mouse; conditions: 24 hours exposure
Protocol: Transfection and Luciferase assay. ESCs were cultured in 96-well cell culture dishes coated with a 0.1% aqueous gelatin solution and transfected with 0.2 μg/well of pSTAT3-TA-Luc (CLONTECH), using Lipofectamine 2000 (Invitrogen). After 6 hours, cells were washed and exposed to either IQ-1 at the indicated doses, or LIF, for 24 hours. Transfection efficiencies were normalized with pRL-null luciferase plasmid. Luciferase assays were performed with the DUAL-Luciferase Reporter Assay System (Promega).

p300/β-catenin complex = test: Co-immunoprecipitation of β-catenin with p300 in P19 cells; assay type: cell-based; conditions: Wnt3a, 10 μM, 24 hours
Protocol: (§1) Co-immunoprecipitation of β-catenin with CBP or p300 in P19 cells. Co-immunoprecipitation was performed as described in (27). Briefly, P19 cells were treated with 10 μM ICG-001 or 10 μM IQ-1 (control DMSO was 0.025%) for 24 hours, after which they were washed and lysed […]. Nuclear fraction was isolated and precleared with antibodies to CBP(A-22) or p300(N-15). β-catenin was detected using a mouse monoclonal antibody (Becton Dickinson) at a dilution of 1:5000.

C2C12 myoblasts = test: Differentiation of C2C12 myoblasts in growth medium; assay type: cell-based; conditions: 10 μM in growth medium
Protocol: FIG. 12. FIG. 12 illustrates that differentiation of C2C12 myoblasts was induced by 10 μM ICG-001 in growth medium, similar to differentiation medium.

CBP/β-catenin complex = target: T1, CBP/β-catenin complex (Mus musculus, UniProt P45481); test: Co-immunoprecipitation of β-catenin with CBP in P19 cells; assay type: cell-based; conditions: Wnt3a, 10 μM, 24 hours
T1 construct: endogenous in cells; host or cells: P19 cells (nuclear fraction)
T1 sequence (P45481 2-2441 limits assumed, one chain of several): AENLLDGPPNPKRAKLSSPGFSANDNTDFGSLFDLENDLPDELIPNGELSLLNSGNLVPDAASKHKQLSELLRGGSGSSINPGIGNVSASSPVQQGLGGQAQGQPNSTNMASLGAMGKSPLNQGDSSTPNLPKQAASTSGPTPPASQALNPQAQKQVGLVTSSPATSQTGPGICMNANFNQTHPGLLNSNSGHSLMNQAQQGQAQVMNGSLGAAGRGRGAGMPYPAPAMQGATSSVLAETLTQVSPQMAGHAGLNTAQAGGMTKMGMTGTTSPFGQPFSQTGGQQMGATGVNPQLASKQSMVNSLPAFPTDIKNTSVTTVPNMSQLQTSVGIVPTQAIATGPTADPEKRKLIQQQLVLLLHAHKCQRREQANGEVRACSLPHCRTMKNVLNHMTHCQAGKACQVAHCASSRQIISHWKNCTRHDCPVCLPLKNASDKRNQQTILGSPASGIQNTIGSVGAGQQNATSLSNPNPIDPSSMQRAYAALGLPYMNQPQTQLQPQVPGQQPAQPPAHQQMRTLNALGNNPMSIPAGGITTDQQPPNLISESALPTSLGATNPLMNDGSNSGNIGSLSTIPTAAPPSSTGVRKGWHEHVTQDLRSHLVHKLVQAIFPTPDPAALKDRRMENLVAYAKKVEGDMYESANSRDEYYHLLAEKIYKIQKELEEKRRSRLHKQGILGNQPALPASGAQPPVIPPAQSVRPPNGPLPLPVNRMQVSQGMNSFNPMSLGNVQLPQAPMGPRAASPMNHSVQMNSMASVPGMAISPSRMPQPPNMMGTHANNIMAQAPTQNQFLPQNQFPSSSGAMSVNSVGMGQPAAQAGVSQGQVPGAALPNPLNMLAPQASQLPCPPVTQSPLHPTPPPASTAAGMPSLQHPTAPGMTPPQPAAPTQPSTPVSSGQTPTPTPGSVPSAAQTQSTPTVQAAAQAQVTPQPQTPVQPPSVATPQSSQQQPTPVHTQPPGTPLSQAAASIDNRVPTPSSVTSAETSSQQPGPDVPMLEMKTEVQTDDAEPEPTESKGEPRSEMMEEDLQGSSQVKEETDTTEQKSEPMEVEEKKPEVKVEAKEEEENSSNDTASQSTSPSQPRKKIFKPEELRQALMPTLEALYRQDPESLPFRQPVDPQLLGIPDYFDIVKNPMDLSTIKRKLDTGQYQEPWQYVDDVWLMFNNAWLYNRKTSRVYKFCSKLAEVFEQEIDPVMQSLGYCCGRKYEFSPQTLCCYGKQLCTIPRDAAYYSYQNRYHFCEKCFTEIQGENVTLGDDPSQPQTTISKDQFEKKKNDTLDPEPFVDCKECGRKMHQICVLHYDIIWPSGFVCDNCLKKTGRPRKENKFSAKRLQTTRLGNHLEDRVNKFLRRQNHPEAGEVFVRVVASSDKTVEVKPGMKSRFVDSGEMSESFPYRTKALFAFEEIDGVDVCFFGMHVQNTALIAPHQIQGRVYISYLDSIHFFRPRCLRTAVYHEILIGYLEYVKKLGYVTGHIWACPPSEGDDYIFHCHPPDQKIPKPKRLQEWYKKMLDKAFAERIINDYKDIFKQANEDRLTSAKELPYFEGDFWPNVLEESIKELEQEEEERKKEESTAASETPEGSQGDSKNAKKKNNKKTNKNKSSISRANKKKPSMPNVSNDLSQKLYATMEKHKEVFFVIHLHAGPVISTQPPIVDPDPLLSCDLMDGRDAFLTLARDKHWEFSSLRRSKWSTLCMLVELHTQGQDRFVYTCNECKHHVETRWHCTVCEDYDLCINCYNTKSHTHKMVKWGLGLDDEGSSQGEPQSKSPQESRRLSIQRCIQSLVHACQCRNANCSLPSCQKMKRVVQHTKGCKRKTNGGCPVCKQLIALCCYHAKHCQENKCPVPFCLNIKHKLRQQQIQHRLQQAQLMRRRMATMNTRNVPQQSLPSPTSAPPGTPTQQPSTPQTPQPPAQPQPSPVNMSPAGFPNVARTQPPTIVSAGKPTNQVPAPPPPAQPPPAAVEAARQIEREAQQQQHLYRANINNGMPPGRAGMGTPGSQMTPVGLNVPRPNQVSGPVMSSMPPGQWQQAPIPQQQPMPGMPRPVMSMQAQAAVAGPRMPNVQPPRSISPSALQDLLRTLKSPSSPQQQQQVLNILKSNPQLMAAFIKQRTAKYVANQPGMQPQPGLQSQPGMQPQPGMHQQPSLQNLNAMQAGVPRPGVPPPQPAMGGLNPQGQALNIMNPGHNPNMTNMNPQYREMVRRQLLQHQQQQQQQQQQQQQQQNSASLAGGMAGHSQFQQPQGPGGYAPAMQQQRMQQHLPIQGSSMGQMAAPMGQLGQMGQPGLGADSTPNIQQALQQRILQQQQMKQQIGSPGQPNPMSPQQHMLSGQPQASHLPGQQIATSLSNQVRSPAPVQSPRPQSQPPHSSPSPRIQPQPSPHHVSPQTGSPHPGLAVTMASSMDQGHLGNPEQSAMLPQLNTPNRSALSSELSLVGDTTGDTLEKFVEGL
Protocol: as §1

ESCs = test: Long term feeder-free culture of ESCs in serum-free (15% KSR) media; assay type: cell-based, mouse
Protocol: FIG. 7. […] ESCs were cultured in 15% KSR, 4 μg/ml of IQ-1 and 100 ng/ml Wnt3a. ESCs were passaged 2-3 times per week at 1×10^5-1×10^6 cells per 6 cm dish and cells were counted.
FIG. 8. […] AP activity of ESCs cultured for 7 days in IQ-1 containing media supplemented with 15% FCS or 15% KSR. […] (Error bars represent ±S.D.)
FIG. 9. […] Over the 42-day culture period, ESCs cultured in the media in the presence of IQ-1 and Wnt3a maintain expression of the pluripotency markers, (a) Nanog, (b) Oct3/4 and (c) Rex-1. The expression level on day 0 was set as 1.
Cell culture. ESCs, D3ES (ATCC CRL-1934) were maintained on Mitomycin C treated MEFs in mouse ESC medium containing DMEM (Invitrogen) supplemented with 15% FBS (Invitrogen), 0.1 mM MEM nonessential amino acids (Invitrogen), 0.1 mM 2-mercaptoethanol (Sigma), 2 mM L-glutamine (Invitrogen) and 1,000 U/ml LIF (CHEMICON). To remove MEFs, cells were collected by trypsinization and plated on gelatin-coated culture dishes for 20 min. Non-adherent cells consisting mainly of ESCs were replated on gelatin-coated culture dishes again. Non-adherent cells were used for further experiments. P19 cells were cultured according to conditions recommended by the ATCC. Cells were incubated at 37° C. in a 5% CO2 incubator. Purified Wnt3a was purchased (R&D Systems).

## LIF: cytokine leukemia inhibitory factor (CHEMICON)
[1]
  Nanog expression: only slightly increased Nanog levels
Stat3 signaling pathway
  Stat3/luciferase expression: elicited a significant response

## O=C1[C@H](Cc2ccc(O)cc2)N2C(=O)CCN(C(=O)NCc3ccccc3)[C@H]2CN1Cc1cccc2ccccc12 [ICG-001, reference compound]
p300/β-catenin complex
  p300/β-catenin interaction: significantly enhanced the p300/β-catenin interaction
C2C12 myoblasts
  differentiation of C2C12 myoblasts: induced the differentiation of C2C12 myoblasts
CBP/β-catenin complex
  relative amount of β-catenin associated with CBP: at the expense of the CBP/β-catenin interaction

B1: Wnt3a: purified Wnt3a protein purchased from R&D Systems (protein, UniProt P56704 19-352, looked up)
Protein Wnt-3a: SYPIWWSLAVGPQYSSLGSQPILCASIPGLVPKQLRFCRNYVEIMPSVAEGIKIGIQECQHQFRGRRWNCTTVHDSLAIFGPVLDKATRESAFVHAIASAGVAFAVTRSCAEGTAAICGCSSRHQGSPGKGWKWGGCSEDIEFGGMVSREFADARENRPDARSAMNRHNNEAGRQAIASHMHLKCKCHGLSGSCEVKTCWWSQPDFRAIGDFLKDKYDSASEMVVEKHRESRGWVETLRPRYTYFKVPTERDLVYYEASPNFCEPNPETGSFGTRDRTCNVSSHGIDGCDLLCCGRGHNARAERRREKCRCVFHWCCYVSCQECTRVYDVHTCK
ESCs; 7 days, IQ-1 containing media, 15% KSR
  AP activity of ESCs on addition of Wnt3a to IQ-1 containing 15% KSR media: increases AP activity
ESCs; KSR media
  ESC proliferation, Wnt3a alone: induced proliferation
  expression of stem cell markers Oct4, Nanog, Rex1, Wnt3a alone: not sufficient to maintain the expression
ESCs; KSR media, single agent
  maintenance of undifferentiated status of ESCs, agent alone: Neither Wnt3a nor IQ-1 alone was sufficient
